From ChEMBL document CHEMBL1145701, “Spinonin, a novel glycoside from Ononis spinosa subsp. leiosperma” (1997)
Values after ≈ are worked out from the molar mass of the structure shown. Active and inactive are the calls of the source. The rule behind the calls is not given here.

Key:
Pseudomonas aeruginosa = test: Antimicrobial activity against Pseudomonas aeruginosa ATCC 9027 by paper-disk diffusion method; format: functional
Streptococcus = test: Antimicrobial activity against beta-hemolytic Streptococcus isolate 48 by paper-disk diffusion method; format: functional
SK-N-SH = test: Cytotoxicity against human SK-N-SH cells […]; format: functional, cell-based
Lu1 = test: Cytotoxicity against human Lu1 cells; format: functional, cell-based
KBVIN = test: Cytotoxicity against human KBVIN cells in presence of vinblastine; format: functional, cell-based
[1] = target: Human immunodeficiency virus type 1 reverse transcriptase (Human immunodeficiency virus 1) (UniProt Q72547); test: Inhibition of HIV1 reverse transcriptase
BC1 = test: Cytotoxicity against human BC1 cells; format: functional, cell-based

| MIC (Pseudomonas aeruginosa) [mg/L] | Activity [1] | Structure (SMILES) | MIC (Streptococcus) [mg/L] | Activity (SK-N-SH) | Activity (Lu1) | Activity (KBVIN) | Activity (BC1) |
| --- | --- | --- | --- | --- | --- | --- | --- |
| 200 (≈ 463 µM) |  | COc1ccc2c(c1)O[C@H]1c3ccc(O[C@@H]4O[C@H](CO)[C@@H](O)[C@H](O)[C@H]4O)cc3OC[C@@H]21 |  |  |  |  |  |
|  |  | COc1ccc(-c2coc3cc(O[C@@H]4O[C@H](CO)[C@@H](O)[C@H](O)[C@H]4O)ccc3c2=O)cc1 [ONONIN] | 25 (≈ 58.1 µM) |  |  |  |  |
| 200 (≈ 434 µM) | inactive | O=C1C=C(c2ccc(O)cc2O[C@@H]2O[C@H](CO)[C@@H](O)[C@H](O)[C@H]2O)O[C@@H]1Cc1ccc(O)cc1 [SPINONIN] |  | inactive | inactive | inactive | inactive |
